According to patent US20090275503A1, “DIASTEREOMERIC PEPTIDES FOR MODULATING T CELL IMMUNITY” (Yeda Research and Developent Co., Ltd. at the Weizman …, priority 2005, published 2009):
Non-standard residues stand in square brackets, D forms with d. Residues, ends and D or L forms follow the SMILES beside them. No end group written: not given here.

Assays:
cells = assay: Cytotoxicity when incubated with cells (Part B); format: cell-based, rat
Lewis rats [1] = assay: Adjuvant arthritis (AA) in Lewis rats (Part B); format: in vivo, rat; conditions: for Mean maximum AA score: 100 μg amidated peptide per rat at AA induction, maximum possible score 16; for Effect on adjuvant arthritis (clinical score and ankle swelling): 100 μg amidated peptide per rat with the antigen at AA induction
Experimental: (§1) To test the effect of CP on T-cell activation in vivo, we used AA as a model system. AA was induced by injecting 50 μl of Mt suspended in IFA (0.5 mg/ml) at the base of the tail. At the time of AA induction, each rat also received 100 μg of L-CP, D-CP or 2G CP control peptide (or PBS) dissolved in 50 μl of IFA and mixed with Mt/IFA used to induce AA. The day of AA induction was designated as day 0. Disease severity was assessed by direct observation of all 4 limbs in each animal. A relative score between 0 and 4 was assigned to each limb, based on the degree of joint inflammation, redness and deformity; thus the maximum possible score for an individual animal was 16. The mean AA score (±SEM) is shown for each experimental group. Arthritis was also quantified by measuring hind limb diameter with a caliper. Measurements were taken on the day of the induction of AA and 26 days later (at the peak of AA); the results are presented as the mean±SEM of the difference between the two values for all the animals in each group. The person who scored the disease was blinded to the identity of the groups.
To test the inhibitory effects of CP on the activation of specific T cells in vivo, we used the adjuvant arthritis (AA) model. Immunization of Lewis rats with Mt in oil triggers AA, an experimental autoimmune disease driven by Mt-specific T cells cross-reactive with self-antigens. Mt176-90-specific T cells are detectable upon induction of AA; indeed the A2b T-cell clone cross-reacts with cartilage and mediates AA. Since L and D-CP inhibited the T-cell response of primed LNC and of clone A2b to PPD and […] in vitro (FIG. 9), we also investigated the effects of L- or D-CP on the in vivo activation of the T cells that drive AA. […] The mean maximum score was 12±0.3 in the control-treated rats, compared with 6±0.7 in the D-CP-treated rats and 7.3±0.7 in the L-CP-treated rats (p<0.05 for the L and D-CP groups compared to the control groups).

[2] = test system: LNC from Mt-immunized rats; assay: T-cell proliferation of LNC or A2b T cell line (Part B, amidated peptides); format: cell-based, rat; conditions: for Inhibition of T-cell proliferative responses to PPD and to Mt176-90: amidated peptides, LNC, 72 hr
Lewis rats [3] = assay: Delayed type hypersensitivity (DTH) to PPD in AA rats (Part B); format: in vivo, rat; conditions: 16 days after AA induction
Experimental: (§2) Twenty μl of PPD (0.5 mg/ml in PBS) were injected intradermally into the pinna of the right ear on day 16 after AA induction; 20 μl of sterile PBS were injected in the left ear as control. The thickness of the ear was measured 48 hr later using a vernier caliper and expressed as the difference between the right and the left ear.
The activity of the T cells that mediate AA can also be detected in vivo by studying the delayed type hypersensitivity (DTH) response to PPD. We studied the DTH response to PPD 16 days after AA induction in rats treated with the three peptides.

BALB/c mice = assay: Delayed type hypersensitivity to oxazalone in mice; format: in vivo, mouse; conditions: topical treatment 1 hr after oxazalone challenge; peptides 150 μg (6 mg/kg) in DMSO; measured following day
Experimental: Groups of 5 female inbred BALB/c mice (The Jackson Laboratory) were sensitized on the shaved abdominal skin with 100 μl of 2% Oxazalone dissolved in acetone/olive oil [4:1 (vol/vol)] applied topically. DTH sensitivity was elicited 5 days later by challenging the mice with 20 μl of 0.5% Oxazalone in acetone/olive oil, 10 μl administered topically to each side of the ear. A constant area of the ear was measured immediately before challenge and 24 h after challenge with a Mitutoyo engineer's micrometer. The individual measuring ear swelling was unaware of the identity of the groups of mice. The DTH reaction is presented as the increment of ear swelling after challenge expressed as the mean±SEM in units of 10-2 mm. One hour after the challenge the mice's ears were treated topically with either all-L CP or with 2D-CP, both dissolved in 40 μl DMSO. The activity of the peptide treatments was compared to treatment with DMSO alone for “untreated mice” and Dexamethasone (100 μg/ml in saline) as a positive control.
To test whether TCR trans-membrane peptides could inhibit the elicitation of existing DTH reactivity, groups of naïve BALB/c mice were sensitized to 2% oxazalone. Five days later, the mice were challenged with 0.5% oxazalone administered to the ear. An hour after the challenge, the mice were treated with Dimethylsulfoxide (DMSO), all-L CP 150 μg (6 mg/kg) in DMSO, 2D-CP 150 μg (6 mg/kg) in DMSO, or dexamethasone, applied topically. On the following day, ear thickness was measured the swelling of DMSO treated mice (0.33±0.01 mm) was compared to that of mice treated with all-L CP (0.30±0.01 mm), 2D-CP (0.27±0.01 mm) and Dexamethasone (0.15±0.02 mm). […] Thus, 2D-CP can inhibit a T-cell mediated immune reaction in subjects already sensitized to the antigen.

LNC from Mt primed rats = assay: T-cell proliferation of LNC from Mt-immunized rats activated with PPD or Mt176-90 (Part A); format: cell-based, rat; conditions: LNC, 72 hr, 3H-thymidine incorporation
Lewis rats [4] = assay: Adjuvant arthritis (AA) in Lewis rats (Part A); format: in vivo, rat
Experimental: as §1, with “the experimental T-cell mediated autoimmune disease adjuvant arthritis (AA) was used.” for “we used AA as a model system.”, “(10” for “(0.5”, “all-L CP, 2D-CP” for “L-CP, D-CP”, “16 (Quintana et al., 2002).” for “16.”
Next, the contribution of the secondary structure and the side-chains to the inhibitory effects of CP on T cell activation In vivo was analyzed, using the experimental autoimmune disease Adjuvant Arthritis (AA). Immunization of Lewis rats with Mt triggers AA, an autoimmune disease driven by Mt-specific T cells that cross-react with self-antigen (Holoshitz et al., 1984; Holoshitz et al., 1983). PPD and Mt176-90 are targeted by the arthritogenic T-cell response (Anderton et al., 1994); indeed immunomodulatory therapies that inhibit the progression of arthritis have been associated with a decreased T cell response to PPD and Mt176-90 and with a diminished delayed type hypersensitivity (DTH) response to PPD (van Eden et al., 1985).

Lewis rats [5] = assay: Delayed type hypersensitivity to PPD in AA rats (Part A); format: in vivo, rat; conditions: 16 days after AA induction, ear thickness 48 hr after PPD
Experimental: as §2, with “right ear of each rat on day” for “right ear on day”, “the left ear (Quintana et al., 2005).” for “the left ear.”

target cells = assay: Cytotoxic effect on the target cells (Part A); conditions: incubated with the target cells
rat TCR = assay: Co-immunoprecipitation of fluorescence-labeled peptides with TCR molecules; format: binding; conditions: Rho-labeled peptides
Experimental: Activated A2b T cells (2×10^6) were cultured for 1 hr at 37° C. in the presence of CP or 2D-CP (25 μg/ml), or 2G-CP, and lysed for 15 min on ice in 0.1 ml lysis buffer (Adachi et al., 1996). Insoluble material was removed by centrifugation at 10.000 g for 10 min at 4° C. The lysate was then incubated overnight with Protein A-plus Agarose beads (Santa Cruz Biotechnology Inc., Santa Cruz, Calif., USA) bound to antibodies to the rat TCR or MHC class 1. The antibodies reactive against the rat TCR (clone R73) or HSP60 (clone LKI) were purified from the respective hybridomas at our lab; antibodies to rat CD28, actin and the rat MHC class 1 were purchased from Serotec (Oxford, UK). After an overnight incubation at 4° C., the beads were washed with lysis buffer, boiled for 10 minutes and the protein supernatant run in a 4-20% SDS-PAGE. The presence of co-immunoprecipitated peptide was detected by the Typhoon 9400 variable mode imager.
Next, co-immunoprecipitation experiments were performed. The affinity of the TCR/CP, the TCR/2D-CP and TCR/2G-CP interactions were compared by performing a series of co-precipitation experiments using different concentrations of Rho-labeled CP, 2D-CP and 2G-CP peptides.

Compound	Cytotoxicity (cells)	Mean maximum AA score (Lewis rats [1])	Effect on adjuvant arthritis (clinical score and ankle swelling) (Lewis rats [1])	Inhibition of T-cell proliferative responses to PPD and to Mt176-90 [2]	Inhibition of T-cell proliferation compared with L-CP ([2]; at the lower concentrations)	Reduction in the DTH response to PPD (Lewis rats [3]) [%]	Ear swelling (BALB/c mice) [mm]	Inhibition of T-cell proliferation to PPD and to Mt176-90 (LNC from Mt primed rats)	Mean maximum AA score (Lewis rats [4]; 100 μg peptide per rat at AA induction, maximum possible score 16)	Effect on adjuvant arthritis (clinical score and paw swelling) (Lewis rats [4]; 100 μg peptide per rat with Mt at the time of AA induction)	Reduction in the DTH response to PPD (Lewis rats [5]) [%]	Cytotoxic effect (target cells)	Co-precipitation with the TCR (rat TCR; activated A2b T cells)	Affinity of TCR interaction compared with TCR/2D-CP (rat TCR; different concentrations)
CC[C@@H](C)[C@@H](NC(=O)[C@@H](CCCNC(=N)N)NC(=O)[C@@H](CC(C)C)NC(=O)CN)C(=O)N[C@H](CC(C)C)C(=O)N[C@H](CC(C)C)C(=O)N[C@H](CC(C)C)C(=O)N[C@H](CCCCN)C(=O)N[C@@H](C(N)=O)C(C)C [D-CP, X-GLRILLLKV-NH2] (H-G[dL][dR][dI][dL][dL][dL][dK][dV]-NH2)	showed no cytotoxicity	6±0.7	significantly milder arthritis	inhibited the T-cell proliferative responses to PPD and to Mt176-90 in a dose-dependent manner	consistently higher	48	–	–	–	–	–	–	–	–
C[C@@H]1C[C@H]2[C@@H]3CCC4=CC(=O)C=C[C@]4(C)[C@@]3(F)[C@@H](O)C[C@]2(C)[C@@]1(O)C(=O)CO [Dexamethasone, reference compound]	–	–	–	–	–	–	0.15±0.02	–	–	–	–	–	–	–
GLRILLLKV [all-L CP] (GLRILLLKV-NH2; listed as Homo sapiens) [wild-type core peptide derived from murine TCRα transmembrane domain, reference compound]	–	–	–	–	–	–	0.30±0.01	inhibited T-cell proliferation to PPD and to Mt176-90 in a dose-dependent manner	7.7±0.7	significantly milder arthritis	39	None of the peptides (all-L CP, 2D-CP or 2G CP) had a cytotoxic effect	can be co-precipitated with the TCR	higher affinity
GLRILLLKV-NH2 [L-CP, X-GLRILLLKV-NH2, reference compound]	showed no cytotoxicity	7.3±0.7	significantly milder arthritis	inhibited the T-cell proliferative responses to PPD and to Mt176-90 in a dose-dependent manner	–	39	–	–	–	–	–	–	–	–
